Assay results as given in patent US20180312493A1, “Antibiotic Compounds, Pharmaceutical Formulations Thereof And Methods And Uses Therefor” (Simon Fraser University, priority 2015, published 2018).
Converted amounts (≈) assume the structure as drawn. Read-outs that look alike come from different tables or passages of the source.

Experiments:
[1] = target: T1, MRSA Pyk (Staphylococcus aureus, UniProt Q6GG09); assay: MRSA pyruvate kinase (PK) activity, continuous LDH-coupled assay; format: biochemical, methicillin resistant S. aureus (MRSA252)
T1 construct: made in house; host or cells: E. coli BL-21 (DE3)
T1 sequence (Q6GG09 whole entry): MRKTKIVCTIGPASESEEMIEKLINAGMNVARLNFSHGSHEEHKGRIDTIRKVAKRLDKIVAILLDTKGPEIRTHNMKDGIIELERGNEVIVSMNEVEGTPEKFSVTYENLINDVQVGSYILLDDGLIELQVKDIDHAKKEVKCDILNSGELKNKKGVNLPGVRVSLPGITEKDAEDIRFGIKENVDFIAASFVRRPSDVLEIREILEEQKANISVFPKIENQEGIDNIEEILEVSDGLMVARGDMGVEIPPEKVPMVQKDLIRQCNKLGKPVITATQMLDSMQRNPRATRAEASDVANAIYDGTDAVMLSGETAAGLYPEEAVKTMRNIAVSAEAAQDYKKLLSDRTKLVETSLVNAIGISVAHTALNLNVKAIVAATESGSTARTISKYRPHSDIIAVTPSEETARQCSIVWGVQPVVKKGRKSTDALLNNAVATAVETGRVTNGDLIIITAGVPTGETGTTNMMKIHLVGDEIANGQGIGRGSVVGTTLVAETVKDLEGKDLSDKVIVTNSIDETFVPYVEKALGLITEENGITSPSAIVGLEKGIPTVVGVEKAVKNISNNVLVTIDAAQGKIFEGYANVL
How it was run: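 Activity monitored continuously as absorbance change at 340 nm from NADH oxidation via coupled lactate dehydrogenase, reactions started with 15 nM recombinant His-tagged PK (MRSA or human isoform) and run at 30° C for up to 5 min. Ki derived by varying inhibitor (0-400 nM) and PEP (2-20 mM) at 2 mM ADP; IC50 by four-parameter fitting.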

[2] = system: S. aureus (ATCC29213); assay: In vitro susceptibility, broth microdilution (MIC); format: cell-based; details: Staphylococcus aureus; S. aureus ATCC29213; 18-24 h, 37 C; read-out: Antimicrobial activity (MIC) S. aureus ATCC29213
How it was run: (§1)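 CLSI 2-fold serial broth microdilution; K. pneumoniae C238 grown in L-broth, S. aureus ATCC 29213 in Mueller Hinton broth, plates incubated 18–24 h at 37 °C. MIC taken as lowest concentration giving complete growth inhibition by OD600 versus compound-free wells, background-subtracted.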

[3] = system: K. pneumoniae (C238); assay: In vitro susceptibility, broth microdilution (MIC); format: cell-based; details: Klebsiella pneumoniae, read-out: Antimicrobial activity (MIC) K. pneumoniae
How it was run: as §1

[4] = system: VRE#2 (2010A); assay: In vitro susceptibility, broth microdilution (MIC); format: cell-based, vancomycin resistant Enterococci; details: VRE#2 (2010A); read-out: Antimicrobial activity (MIC) VRE#2
How it was run: (§2)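 MIC determined by CLSI 2-fold broth microdilution in cation-adjusted Mueller–Hinton broth at ~2.5×10^5 CFU/ml, final compound 0.031–64 μg/ml, 18–24 h at 37 °C. MIC is the lowest concentration giving complete growth inhibition by background-corrected OD600 versus compound-free wells; duplicate or triplicate wells, replicated at least twice.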

[5] = system: MRSA MW2 (USA400); assay: In vitro susceptibility, broth microdilution (MIC); format: cell-based, methicillin resistant S. aureus; details: Staphylococcus aureus; MRSA MW2 (USA400); read-out: Antimicrobial activity (MIC) MSRA USA400
How it was run: as §2

[6] = system: A. baumannii (ATCC 17978); assay: In vitro susceptibility, broth microdilution (MIC); format: cell-based; details: Acinetobacter baumannii, ATCC17978; A. baumannii ATCC 17978 (values marked *); read-out: Antimicrobial activity (MIC) A. baumannii
How it was run: as §2

With `O=C(NCCC1CCC(O)CC1)c1c(/C=C/c2ccc(Cl)cc2)[nH]c2cc(Br)ccc12` (stereo not drawn) [Compound 41, (E)-6-Bromo-2-(4-chlorostyryl)-N-(2-(4-hydroxycyclohexyl)ethyl)-1H-indole-3-carboxamide] as the compound, how does the IC50 [1] read?
Its IC50 is < 100 nM.

What about the MIC [2] of the same compound?
The MIC was > 64 µg/mL.

And the MIC ([3]; K. pneumoniae (C238))?
Its MIC is > 64 µg/mL.

What about the MIC [4] of the same compound?
The MIC was > 64 µg/mL.

What about the MIC [5] of the same compound?
Its MIC is > 64 µg/mL.

How did the IC50 [1] turn out when `CN1CCN(CCCNC(=O)c2c(/C=C/c3ccc(Cl)cc3)[nH]c3cc(Br)ccc23)CC1` [Compound 43, (E)-6-Bromo-2-(4-chlorostyryl)-N-(3-(4-methylpiperazin-1-yl)propyl)-1 H-indole-3-carboxamide] was run?
The IC50 was < 100 nM.

And the MIC [2]?
Its MIC is 32 µg/mL (≈ 62 µM).

What about the MIC ([3]; K. pneumoniae (C238)) of the same compound?
The MIC was 32 µg/mL (≈ 62 µM).

What about the MIC [4] of the same compound?
The MIC was 16 µg/mL (≈ 31 µM).

What about the MIC [5] of the same compound?
The MIC was 32 µg/mL (≈ 62 µM).

What does the source list for `CN1CCN(CCCCNC(=O)c2c(/C=C/c3ccc(Cl)cc3)[nH]c3cc(Br)ccc23)CC1` [Compound 44, (E)-6-Bromo-2-(4-chlorostyryl)-N-(4-(4-methylpiperazin-1-yl)butyl)-1 H-indole-3-carboxamide]?
IC50 [1]: 100 to 1000 nM; MIC [2]: 32 µg/mL (≈ 60.4 µM); MIC ([3]; K. pneumoniae (C238)): 32 µg/mL (≈ 60.4 µM); MIC [4]: 16 µg/mL (≈ 30.2 µM); MIC [5]: 32 µg/mL (≈ 60.4 µM)

How did the IC50 [1] turn out when `CN1CCN(CCNC(=O)c2c(-c3cc4cc(Cl)ccc4[nH]3)[nH]c3cc(Br)ccc23)CC1` [Compound 72, 6-Bromo-5′-chloro-N-(2-(4-methylpiperazin-1-yl)ethyl)-1H,1′H-[2,2′-biindole]-3-carboxamide] was run?
Its IC50 is < 100 nM.

And the MIC [2]?
Its MIC is 8 µg/mL (≈ 15.5 µM).

What about the MIC ([3]; K. pneumoniae (C238)) of the same compound?
Its MIC is 8 µg/mL (≈ 15.5 µM).

What about the MIC [4] of the same compound?
The MIC was 8 µg/mL (≈ 15.5 µM).

What about the MIC [6] of the same compound?
The MIC was > 64 µg/mL.

What does the source list for `CN(C)CCc1c(-c2cc3cc(Cl)ccc3[nH]2)[nH]c2cc(Br)ccc12` [Compound 77, 2-(6-Bromo-5′-chloro-1H,1′H-[2,2′-biindol]-3-yl)-N,N-dimethylethan-1-amine]?
IC50 [1]: < 100 nM; MIC [2]: 4 µg/mL (≈ 9.6 µM); MIC [3]: 4 µg/mL (≈ 9.6 µM); MIC [5]: 4 µg/mL (≈ 9.6 µM)

With `CN(C)CCNC(=O)c1c(NC(=O)c2ccc(Cl)cc2)[nH]c2cc(Br)ccc12` [Compound 84, 6-Bromo-2-(4-chlorobenzamido)-N-(2-(dimethylamino)ethyl)-1H-indole-3-carboxamide] as the compound, how does the MIC [2] read?
Its MIC is 64 µg/mL (≈ 138 µM).

What about the MIC ([3]; K. pneumoniae (C238)) of the same compound?
The MIC was 16 µg/mL (≈ 34.5 µM).

What about the MIC [5] of the same compound?
Its MIC is > 64 µg/mL.

Which IC50 [1] does the source give for `COC(=O)C(=O)c1c(/C=C/c2ccc(Cl)cc2)[nH]c2cc(Br)ccc12` [Compound 86, (E)-Methyl 2-(6-bromo-2-(4-chlorostyryl)-1H-indol-3-yl)-2-oxoacetate] here?
The IC50 was < 100 nM.

And the MIC [2]?
The MIC was 64 µg/mL (≈ 153 µM).

What about the MIC ([3]; K. pneumoniae (C238)) of the same compound?
The MIC was > 64 µg/mL.

What about the MIC [4] of the same compound?
Its MIC is 64 µg/mL (≈ 153 µM).

And the MIC [5]?
The MIC was 64 µg/mL (≈ 153 µM).

`CNC(=O)C(=O)c1c(/C=C/c2ccc(Cl)cc2)[nH]c2cc(Br)ccc12` [Compound 87, (E)-2-(6-bromo-2-(4-chlorostyryl)-1H-indol-3-yl)-N-methyl-2-oxoacetamide] was tested. Which IC50 [1] did it give?
The IC50 was < 100 nM.

And the MIC [2]?
The MIC was > 64 µg/mL.

And the MIC ([3]; K. pneumoniae (C238))?
The MIC was > 64 µg/mL.

And the MIC [4]?
The MIC was > 64 µg/mL.

And the MIC [5]?
The MIC was > 64 µg/mL.

With `O=C(Nc1c(/C=C/c2ccc(Cl)cc2)[nH]c2cc(Br)ccc12)C(F)(F)F` [Compound 93, (E)-N-(6-bromo-2-(4-chlorostyryl)-1H-indol-3-yl)-2,2,2-trifluoroacetamide] as the compound, how does the IC50 [1] read?
Its IC50 is < 100 nM.

And the MIC [2]?
Its MIC is 32 µg/mL (≈ 72.1 µM).

And the MIC [3]?
Its MIC is > 64 µg/mL.

And the MIC [4]?
Its MIC is 64 µg/mL (≈ 144 µM).

And the MIC [5]?
Its MIC is > 64 µg/mL.

Which IC50 [1] does the source give for `CC(=O)Nc1c(/C=C/c2ccc(Cl)cc2)[nH]c2cc(Br)ccc12` [Compound 94, (E)-N-(6-bromo-2-(4-chlorostyryl)-1H-indol-3-yl)acetamide] here?
Its IC50 is 100 to 1000 nM.

What about the MIC [2] of the same compound?
The MIC was 32 µg/mL (≈ 82.1 µM).

And the MIC ([3]; K. pneumoniae (C238))?
Its MIC is > 64 µg/mL.

What about the MIC [4] of the same compound?
Its MIC is > 64 µg/mL.

What about the MIC [5] of the same compound?
The MIC was > 64 µg/mL.

With `O=C(CO)Nc1c(/C=C/c2ccc(Cl)cc2)[nH]c2cc(Br)ccc12` [Compound 95, (E)-N-(6-bromo-2-(4-chlorostyryl)-1H-indol-3-yl)-2-hydroxyacetamide] as the compound, how does the IC50 [1] read?
Its IC50 is 100 to 1000 nM.

And the MIC [2]?
Its MIC is 32 µg/mL (≈ 78.9 µM).

What about the MIC ([3]; K. pneumoniae (C238)) of the same compound?
Its MIC is 64 µg/mL (≈ 158 µM).

What about the MIC [4] of the same compound?
Its MIC is 64 µg/mL (≈ 158 µM).

And the MIC [5]?
Its MIC is 64 µg/mL (≈ 158 µM).

With `CC(=O)Nc1c(CCc2ccc(Cl)cc2)[nH]c2cc(Br)ccc12` [Compound 96, N-(6-Bromo-2-(4-chlorophenethyl)-1H-indol-3-yl)acetamide] as the compound, how does the IC50 [1] read?
The IC50 was > 1000 nM.

And the MIC [2]?
The MIC was 64 µg/mL (≈ 163 µM).

What about the MIC ([3]; K. pneumoniae (C238)) of the same compound?
The MIC was > 64 µg/mL.

And the MIC [4]?
Its MIC is > 64 µg/mL.

What about the MIC [5] of the same compound?
The MIC was > 64 µg/mL.
